Results: patent US20240252486A1, “ALGOSTATIC AGENTS FOR PREVENTING TRANSITION FROM ACUTE TO CHRONIC PAIN” (The Regents of the University of California, priority 2021, published 2024)

What was measured:
Format in all cases: in vivo, mouse
[1] = system: PEA levels in ipsilateral lumbar spinal cord (L4-L6); experiment: PEA quantification in lumbar spinal cord (LC/MS-MS); conditions: post-formalin ARN19702 30 mg-kg^−1 IP on PFD2-4; 2 h after administration
Procedure: Lipid extraction: Lumbar L4-L6 spinal cord fragments (˜15 mg each) were transferred into 2 ml Precellys® soft tissue tubes (Bertin Instruments, France) and diluted with ice-cold acetone (1 ml) containing [2H4]-PEA (50 μl, 100 nM) Samples were homogenized at 4° C., 6000 rpm, 15 s/cycle for 2 cycles with 20 s pause in between cycles. Supernatants were transferred into 8-ml glass vials and dried under nitrogen. Chloroform/methanol (2/1, vol, 3 ml) and water (1 ml) were added to the samples, which were then stirred vigorously and centrifuged at 830×g for 15 min at 4° C. The lower (organic) phases were collected and upper phases were extracted again with chloroform (2 ml) and combined with the previous extract. Extracts were dried under nitrogen, reconstituted in acetonitrile (0.1 ml), transferred to deactivated glass inserts and placed inside amber glass vials for liquid chromatography/tandem mass spectrometry (LC/MS-MS) analyses.
PEA quantification: PEA was fractionated using a 1260 series LC system (Agilent Technologies, Santa Clara, CA) coupled to a 6460C triple-quadrupole mass spectrometric detector (MSD; Agilent). […] The MSD was operated in the positive electrospray ionization mode, and analytes were quantified by multiple reaction monitoring. […]

formalin-injected mice [2] = experiment: 24-h novel object recognition test (long-term memory) after formalin; conditions: ARN19702 30 mg-kg^−1 IP once daily for 3 days starting 24 h after formalin; PFD14
Procedure: The test was conducted over 3 days.
The test was conducted over 3 days. […] The discriminatory index was calculated as follows: […]

[3] = Body-weight gain after formalin; conditions: ARN19702 30 mg-kg^−1 IP once daily for 3 days starting 24 h after formalin; PFD14
formalin-injected mice [4] = experiment: Elevated plus maze test (anxiety-like behavior) after formalin; conditions: ARN19702 30 mg-kg^−1 IP once daily for 3 days starting 24 h after formalin; PFD7
Procedure: (§1) Elevated plus maze test: We placed each mouse in the central platform of the maze, facing the open arm opposite to the experimenter, and behavior was recorded using the Debut video capture software (NCH Software, Canberra, Australia). A blinded observer measured the amount of time spent in the open and closed arms, as well as the number of open and closed arm entries. The open arms of the maze were illuminated at 150-170 lux and the closed arms at 40-50 lux.
as §1, with “lux. The anxiety index was calculated as follows: […]” for “lux.”

With `CCS(=O)(=O)c1ccccc1C(=O)N1CCN(c2nc3ccc(F)cc3s2)C[C@@H]1C` [ARN19702] the “PEA levels in ipsilateral lumbar spinal cord (L4-L6)” value [1] was “normalized”, the memory deficits (formalin-injected mice [2]) was “normalizing” and the body-weight gain [3] was “normalizing”. The anxiety-like behavior (formalin-injected mice [4]) was “normalizing”.
